Common to all, as to assay type: cell-based
Experiment [1] relates to LTC4-induced contraction of strips of guinea pig lung. The experiment is described as follows: inhibition of LTC4-induced contraction of strips of guinea pig lung. The conditions noted are these: Cavia porcellus; LTC4 3 ng/ml; indomethacin-pretreated strips (10^-6 g/ml); test substance added after maximum contraction plateau; 37° C.; read-out: IC50 with respect to LTC4. The protocol: (§1) The leukotriene-antagonistic action of the substances of the general formula I according to the invention is determined by the inhibition of the leukotriene-induced contraction of strips of guinea pig lung. The method which is used is a modification of the test described by Foreman, Shelly and Weber (Arch. Int. Pharmacodyn. 278, 193-206 (1985)).
(§2) Guinea pigs are sacrificed by an overdose of ether. The thoracic cavity is opened; the lungs are removed and cut into strips 5 cm long, which are stored in physiological saline. For the measurement, the strips of lung are placed in an organ bath filled with Ringer's solution which is equilibrated at 37° C. and through which carbogen (O2 /CO2 95:5 parts by volume) is passed. The strips are left to equilibrate under a load of 0.5-1 g for 30-60 minutes. The strips of lung are pretreated with indomethacin (10^-6 g/ml of bath liquid) before the test starts.
(§3) The contraction is induced by adding LTC4, LTD4 or LTE4 in a concentration of 3 ng/ml of bath liquid. The test substances are administered therapeutically into the bath, after the maximum contraction plateau has been reached, in several concentrations and at time intervals of 10 minutes. 6-12 strips of lung are used for each concentration of the test substance.
(§4) The concentrations of the test substances at which the contraction is reduced by 50% (IC50) are indicated in μg/ml.

Experiment [2] relates to LTD4-induced contraction of strips of guinea pig lung. The experiment is described as follows: inhibition of LTD4-induced contraction of strips of guinea pig lung. The settings on record: Cavia porcellus; LTD4 3 ng/ml; indomethacin-pretreated strips (10^-6 g/ml); test substance added after maximum contraction plateau; 37° C.; read-out: IC50 with respect to LTD4. The protocol:
as §1, §2, §3, §4

Experiment [3] has as its system LTE4-induced contraction of strips of guinea pig lung. The experiment is described as follows: inhibition of LTE4-induced contraction of strips of guinea pig lung. The conditions noted are these: Cavia porcellus; LTE4 3 ng/ml; indomethacin-pretreated strips (10^-6 g/ml); test substance added after maximum contraction plateau; 37° C.; read-out: IC50 with respect to LTE4. The protocol:
as §1, §2, §3, §4

The structures appear in SMILES notation. In brackets after ≈: the same amount, converted by molar mass.

Consider `O=C(O)CCSCC(O)Cc1cccc(C2CCCC2)c1OCc1ccccc1` (racemic) [Compound C, (6RS)-7-(2-Benzyloxy-3-cyclopentylphenyl)-6-hydroxy-4-thiaheptanoic acid], for which the IC50 in experiment [1] is 3 to 6 µg/mL (≈ 7.24 to 14.5 µM); in experiment [2] it was 3 to 6 µg/mL (≈ 7.24 to 14.5 µM); in experiment [3], 3 µg/mL (≈ 7.24 µM).

Take `COC(=O)CCSCC(O)Cc1cc(Cl)ccc1OCc1ccccc1` (racemic) [Compound D, Methyl (6RS)-7-(2-benzyloxy-5-chlorophenyl)-6-hydroxy-4-thiaheptanoate]: the IC50 was 6 to 10 µg/mL (≈ 15.2 to 25.3 µM) in experiment [1], 3 µg/mL (≈ 7.6 µM) in experiment [2] and 1 to 3 µg/mL (≈ 2.53 to 7.6 µM) in experiment [3].

`COC(=O)CCSCC(O)Cc1ccccc1OCc1ccccc1` (racemic) [Compound A, Methyl (6RS)-7-(2-benzyloxyphenyl)-6-hydroxy-4-thiaheptanoate]: the IC50 was 0.6 to 1 µg/mL (≈ 1.66 to 2.77 µM) in experiment [1], 0.6 µg/mL (≈ 1.66 µM) in experiment [2] and 0.6 to 1 µg/mL (≈ 1.66 to 2.77 µM) in experiment [3].

Take `OCCSCC(O)Cc1cccc(C2CCCC2)c1OCc1ccccc1` (racemic) [Compound E, (5RS)-6-(2-benzyloxy-3-cyclopentylphenyl)-3-thiahexane-1,5-diol]: the IC50 in experiment [1] was in the range of 6 to 10 µg/mL (≈ 15.5 to 25.9 µM); in experiment [2] it was 6 to 10 µg/mL (≈ 15.5 to 25.9 µM); in experiment [3], 1 to 3 µg/mL (≈ 2.59 to 7.76 µM).

In the case of `COC(=O)CCSCC(O)Cc1cccc(C2CCCC2)c1OCc1ccccc1` (racemic) [Compound B, Methyl (6RS)-7-(2-benzyloxy-3-cyclopentylphenyl)-6-hydroxy-4-thiaheptanoate], the IC50 is 0.6 µg/mL (≈ 1.4 µM) in experiment [1], 1 µg/mL (≈ 2.33 µM) in experiment [2] and 3 µg/mL (≈ 7 µM) in experiment [3].

For orientation: IC50 means the point on the concentration scale where inhibition reaches its midpoint.

The record behind these values is US4855323A, “Leukotriene antagonists, a process for the preparation thereof, and the use thereof for the treatment of diseases” (Hoechst Aktiengesellschaft, priority 1987, dated 1989).
